Results published in ChEMBL document CHEMBL1201862, “PubChem BioAssay data set” (2004).
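Dose response: 5 concentrations. Exposure: 48 h. Format: 96-well plates. Endpoint: linear interpolation; highest concentration if not reached. Here, GI50 denotes the concentration required for 50% inhibition of growth.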 Calls of active or inactive are those of the source. Cut-off read from the data, not from the text of the source: active = GI50 up to about 1.1 µM and inactive = higher.

Tests used:
Test in all cases: NCI-60 cell line screen, 48 h
[1] = test system: NCI-H23
[2] = test system: NCI-H226
[3] = test system: A498
[4] = test system: DMS-114
[5] = test system: OVCAR-4
[6] = test system: HCT-15
[7] = test system: A549
[8] = test system: XF498
[9] = test system: HOP-62
[10] = test system: KM-20L2
[11] = test system: UO-31
[12] = test system: LXFL 529
[13] = test system: SK-MEL-2
[14] = test system: UACC-62
[15] = test system: ACHN
[16] = test system: CAKI-1
[17] = test system: SR
[18] = test system: IGROV-1
[19] = test system: OVCAR-3
[20] = test system: HT-29
[21] = test system: COLO 205
[22] = test system: OVCAR-5
[23] = test system: SF-295
[24] = test system: HL-60
[25] = test system: TK-10
[26] = test system: HCC 2998
[27] = test system: SK-OV-3
[28] = test system: NCI-H460
[29] = test system: KM12
[30] = test system: M19-MEL
[31] = test system: SNB-78
[32] = test system: M14
[33] = test system: UACC-257
[34] = test system: SN12C
[35] = test system: HCT-116
[36] = test system: SF-268
[37] = test system: HOP-92
[38] = test system: OVCAR-8
[39] = test system: NCI-H522
[40] = test system: RPMI-8226
[41] = test system: LOX IMVI
[42] = test system: K562
[43] = test system: 786-0
[44] = test system: SNB-19
[45] = test system: SW-620
[46] = test system: MOLT-4
[47] = test system: RXF 393
[48] = test system: DLD-1
[49] = test system: SF-539
[50] = test system: U-251
[51] = test system: Malme-3M
[52] = test system: EKVX
[53] = test system: CCRF-CEM
[54] = test system: HOP-18
[55] = test system: SK-MEL-5
[56] = test system: SK-MEL-28
[57] = test system: SNB-75
[58] = test system: DMS-273

`COC(=O)C1=NC(=S)NC(c2ccccc2)C1c1nc2ccccc2o1` (stereo unspecified) was tested, and the GI50 [1] was > 50 µM (inactive), the GI50 [2] was > 50 µM (inactive) and the GI50 [3] was > 50 µM (inactive). For the same compound, the GI50 [4] was > 50 µM (inactive), the GI50 [5] was > 50 µM (inactive) and the GI50 [6] was greater than 50 µM. For the same compound, the GI50 [7] was > 50 µM (inactive), the GI50 [8] was > 50 µM (inactive) and the GI50 [9] was > 50 µM (inactive). The GI50 [10] was > 50 µM (inactive), the GI50 [11] was > 50 µM (inactive) and the GI50 [12] was > 50 µM (inactive). The GI50 [13] was > 50 µM (inactive), the GI50 [14] was > 50 µM (inactive) and the GI50 [15] was > 50 µM (inactive). The GI50 [16] was > 50 µM (inactive), the GI50 [17] was > 50 µM (inactive) and the GI50 [18] was > 50 µM (inactive). For the same compound, the GI50 [19] was > 50 µM (inactive), the GI50 [20] was > 50 µM (inactive) and the GI50 [21] was > 50 µM (inactive). The GI50 [22] was > 50 µM (inactive), the GI50 [23] was > 50 µM (inactive) and the GI50 [24] was > 50 µM (inactive). The GI50 [25] was > 50 µM (inactive), the GI50 [26] was > 50 µM (inactive) and the GI50 [27] was > 50 µM (inactive). The GI50 [28] was > 50 µM (inactive), the GI50 [29] was > 50 µM (inactive) and the GI50 [30] was > 50 µM (inactive). For the same compound, the GI50 [31] was > 50 µM (inactive), the GI50 [32] was > 50 µM (inactive) and the GI50 [33] was > 50 µM (inactive). The GI50 [34] was > 50 µM (inactive), the GI50 [35] was > 50 µM (inactive) and the GI50 [36] was > 50 µM (inactive). The GI50 [37] was > 50 µM (inactive), the GI50 [38] was > 50 µM (inactive) and the GI50 [39] was > 50 µM (inactive). The GI50 [40] was > 50 µM (inactive), the GI50 [41] was > 50 µM (inactive) and the GI50 [42] was > 50 µM (inactive). For the same compound, the GI50 [43] was > 50 µM (inactive), the GI50 [44] was > 50 µM (inactive) and the GI50 [45] was > 50 µM (inactive). For the same compound, the GI50 [46] was > 50 µM (inactive), the GI50 [47] was 20.1 µM (inactive) and the GI50 [48] was > 50 µM (inactive). The GI50 [49] was > 50 µM (inactive), the GI50 [50] was > 50 µM (inactive) and the GI50 [51] was > 50 µM (inactive). For the same compound, the GI50 [52] was > 50 µM (inactive), the GI50 [53] was > 50 µM (inactive) and the GI50 [54] was > 50 µM (inactive).
With `CC1(C)OC2OC(COC(=O)C(c3ccccc3)c3ccccc3)C3OC(C)(C)OC3C2O1` (stereo unspecified) the GI50 [1] was 20.1 µM (inactive), the GI50 [2] was > 10 µM (inactive) and the GI50 [3] was > 10 µM (inactive). For the same compound, the GI50 [4] was 22.2 µM (inactive), the GI50 [5] was 8.71 µM (inactive) and the GI50 [6] was 6.73 µM. For the same compound, the GI50 [7] was 26.1 µM (inactive), the GI50 [8] was 14.7 µM (inactive) and the GI50 [9] was > 10 µM (inactive). For the same compound, the GI50 [10] was 50.2 µM (inactive), the GI50 [11] was 35.5 µM (inactive) and the GI50 [12] was > 10 µM (inactive). For the same compound, the GI50 [13] was 46.8 µM (inactive), the GI50 [14] was 9.27 µM (inactive) and the GI50 [15] was 29.7 µM (inactive). The GI50 [16] was > 10 µM (inactive), the GI50 [17] was > 10 µM (inactive) and the GI50 [18] was > 10 µM (inactive). For the same compound, the GI50 [19] was > 10 µM (inactive), the GI50 [20] was 8.79 µM (inactive) and the GI50 [21] was 31 µM (inactive). For the same compound, the GI50 [22] was > 10 µM (inactive), the GI50 [23] was 10.7 µM (inactive) and the GI50 [24] was 4.21 µM (inactive). For the same compound, the GI50 [25] was > 10 µM (inactive), the GI50 [26] was > 10 µM (inactive) and the GI50 [27] was > 10 µM (inactive). For the same compound, the GI50 [55] was 7.11 µM (inactive), the GI50 [28] was 4.84 µM (inactive) and the GI50 [29] was 5.87 µM (inactive). The GI50 [30] was 66.7 µM (inactive), the GI50 [32] was 93.1 µM (inactive) and the GI50 [33] was > 10 µM (inactive). The GI50 [56] was 43.5 µM (inactive), the GI50 [34] was 90.2 µM (inactive) and the GI50 [35] was > 10 µM (inactive). For the same compound, the GI50 [57] was 17.1 µM (inactive), the GI50 [36] was 16.9 µM (inactive) and the GI50 [37] was 61.8 µM (inactive). For the same compound, the GI50 [38] was 53 µM (inactive), the GI50 [39] was 21.6 µM (inactive) and the GI50 [40] was 4.5 µM (inactive). For the same compound, the GI50 [58] was 9.02 µM (inactive), the GI50 [41] was 9.68 µM (inactive) and the GI50 [42] was 4.29 µM (inactive). The GI50 [43] was 24.7 µM (inactive), the GI50 [44] was 66.7 µM (inactive) and the GI50 [45] was 6.87 µM (inactive). The GI50 [46] was 5.02 µM (inactive), the GI50 [47] was 12.3 µM (inactive) and the GI50 [48] was 7.98 µM (inactive). For the same compound, the GI50 [49] was 95.9 µM (inactive), the GI50 [50] was > 10 µM (inactive) and the GI50 [51] was 46.8 µM (inactive). The GI50 [52] was > 10 µM (inactive), the GI50 [53] was 17.1 µM (inactive) and the GI50 [54] was > 10 µM (inactive).
